Results as given in publication PMC11790660 (Frontiers in Chemistry, 2025).
Read-outs that look alike come from different tables or passages of the source.

How the values were obtained:
[1] = system: MCF-7; test: cells; type: cell-based
[2] = system: HeLa; test: cells; type: cell-based; settings: read-out: IC50 against cell proliferation, HeLa
[3] = system: A549; test: cells; type: cell-based
[4] = system: HepG2 cell lines (liver tumor cell); test: cells; settings: Homo sapiens, HepG2, 24 h, read-out: IC50 HepG2
[5] = system: LO2 cell lines (normal liver cell); test: cells; settings: Homo sapiens, L02, 24 h, read-out: IC50 LO2
[6] = system: WI38 normal cells; test: cells; settings: Homo sapiens, WI-38, read-out: IC50 WI38
[7] = system: LO2 cell lines (normal liver cell); settings: for IC50: read-out: IC50 LO2
[8] = system: WI38 normal cells; settings: for IC50: read-out: IC50 WI38
[9] = system: HepG2 cell lines (liver tumor cell); settings: for IC50: read-out: IC50 HepG2
[10] = H2S release, methylene blue (MB+) method; type: physicochemical; settings: MB+ method with TECP or cysteine; different temperature and pH
[11] = molecular target: PI3Kγ (Homo sapiens, UniProt P48736); test: In vitro PI3K enzyme inhibitory assay (ADP-Glo), PI3Kγ; type: biochemical; settings: read-out: PI3Kγ % inhibition at 10 μM
PI3Kγ, sequence (P48736 whole entry): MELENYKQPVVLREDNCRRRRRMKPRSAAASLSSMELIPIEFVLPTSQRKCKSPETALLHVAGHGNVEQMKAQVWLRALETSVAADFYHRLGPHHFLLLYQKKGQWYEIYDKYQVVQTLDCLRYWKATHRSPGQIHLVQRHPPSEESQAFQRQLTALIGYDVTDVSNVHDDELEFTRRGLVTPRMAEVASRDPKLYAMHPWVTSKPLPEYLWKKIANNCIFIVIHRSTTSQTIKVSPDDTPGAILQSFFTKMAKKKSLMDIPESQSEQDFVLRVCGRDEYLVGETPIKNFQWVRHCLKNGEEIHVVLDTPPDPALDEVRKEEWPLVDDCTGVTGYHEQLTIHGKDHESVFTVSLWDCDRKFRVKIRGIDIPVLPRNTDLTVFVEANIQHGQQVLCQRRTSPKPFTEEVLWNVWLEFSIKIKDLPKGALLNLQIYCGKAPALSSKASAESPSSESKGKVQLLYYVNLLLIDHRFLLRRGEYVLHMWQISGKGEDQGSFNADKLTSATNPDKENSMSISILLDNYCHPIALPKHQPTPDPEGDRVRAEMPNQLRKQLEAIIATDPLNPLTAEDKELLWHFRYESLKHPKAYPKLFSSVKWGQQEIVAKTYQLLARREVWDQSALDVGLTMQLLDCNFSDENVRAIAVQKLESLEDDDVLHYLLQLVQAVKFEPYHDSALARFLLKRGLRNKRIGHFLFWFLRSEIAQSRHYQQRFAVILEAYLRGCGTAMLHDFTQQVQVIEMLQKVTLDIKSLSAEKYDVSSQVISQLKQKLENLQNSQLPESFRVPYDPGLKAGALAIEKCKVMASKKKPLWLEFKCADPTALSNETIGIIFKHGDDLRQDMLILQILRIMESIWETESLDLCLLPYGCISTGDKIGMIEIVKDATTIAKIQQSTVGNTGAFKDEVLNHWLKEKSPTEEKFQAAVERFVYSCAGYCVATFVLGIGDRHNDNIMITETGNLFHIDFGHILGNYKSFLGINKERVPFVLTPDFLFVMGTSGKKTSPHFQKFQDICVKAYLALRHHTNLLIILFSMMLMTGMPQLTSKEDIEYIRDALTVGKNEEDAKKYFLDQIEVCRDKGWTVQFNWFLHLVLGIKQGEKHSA

[12] = molecular target: PI3Kα (Homo sapiens, UniProt P42336); test: In vitro PI3K enzyme inhibitory assay (ADP-Glo), PI3Kα; type: biochemical; settings: read-out: PI3Kα % inhibition at 10 μM
PI3Kα, sequence (P42336 whole entry): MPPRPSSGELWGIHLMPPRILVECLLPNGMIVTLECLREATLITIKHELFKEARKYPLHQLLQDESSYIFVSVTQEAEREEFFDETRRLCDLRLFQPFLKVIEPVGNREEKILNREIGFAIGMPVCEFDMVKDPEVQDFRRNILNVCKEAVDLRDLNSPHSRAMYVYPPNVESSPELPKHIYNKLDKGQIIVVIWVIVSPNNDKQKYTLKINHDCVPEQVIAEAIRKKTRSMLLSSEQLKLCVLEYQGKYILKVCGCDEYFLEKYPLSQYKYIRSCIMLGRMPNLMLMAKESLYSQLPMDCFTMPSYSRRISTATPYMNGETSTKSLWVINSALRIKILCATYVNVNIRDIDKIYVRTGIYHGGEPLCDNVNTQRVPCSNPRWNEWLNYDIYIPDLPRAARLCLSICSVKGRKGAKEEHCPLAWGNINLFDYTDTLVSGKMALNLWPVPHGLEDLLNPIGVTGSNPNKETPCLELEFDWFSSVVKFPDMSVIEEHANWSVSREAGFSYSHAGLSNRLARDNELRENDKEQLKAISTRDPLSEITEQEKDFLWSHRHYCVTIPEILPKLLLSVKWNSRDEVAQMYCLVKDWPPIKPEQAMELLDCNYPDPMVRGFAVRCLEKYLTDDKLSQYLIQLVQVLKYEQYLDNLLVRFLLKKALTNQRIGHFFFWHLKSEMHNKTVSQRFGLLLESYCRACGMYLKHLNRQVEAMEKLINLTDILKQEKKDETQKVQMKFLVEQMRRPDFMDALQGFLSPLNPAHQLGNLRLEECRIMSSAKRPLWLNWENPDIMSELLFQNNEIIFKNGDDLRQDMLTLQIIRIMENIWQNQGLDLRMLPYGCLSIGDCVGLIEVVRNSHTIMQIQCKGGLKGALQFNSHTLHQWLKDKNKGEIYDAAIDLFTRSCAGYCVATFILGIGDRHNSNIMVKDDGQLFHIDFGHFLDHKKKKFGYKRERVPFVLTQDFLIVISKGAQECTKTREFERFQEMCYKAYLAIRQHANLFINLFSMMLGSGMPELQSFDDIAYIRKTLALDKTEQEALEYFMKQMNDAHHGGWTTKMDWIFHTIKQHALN
PI3Kα, sequence (P27986 whole entry partner): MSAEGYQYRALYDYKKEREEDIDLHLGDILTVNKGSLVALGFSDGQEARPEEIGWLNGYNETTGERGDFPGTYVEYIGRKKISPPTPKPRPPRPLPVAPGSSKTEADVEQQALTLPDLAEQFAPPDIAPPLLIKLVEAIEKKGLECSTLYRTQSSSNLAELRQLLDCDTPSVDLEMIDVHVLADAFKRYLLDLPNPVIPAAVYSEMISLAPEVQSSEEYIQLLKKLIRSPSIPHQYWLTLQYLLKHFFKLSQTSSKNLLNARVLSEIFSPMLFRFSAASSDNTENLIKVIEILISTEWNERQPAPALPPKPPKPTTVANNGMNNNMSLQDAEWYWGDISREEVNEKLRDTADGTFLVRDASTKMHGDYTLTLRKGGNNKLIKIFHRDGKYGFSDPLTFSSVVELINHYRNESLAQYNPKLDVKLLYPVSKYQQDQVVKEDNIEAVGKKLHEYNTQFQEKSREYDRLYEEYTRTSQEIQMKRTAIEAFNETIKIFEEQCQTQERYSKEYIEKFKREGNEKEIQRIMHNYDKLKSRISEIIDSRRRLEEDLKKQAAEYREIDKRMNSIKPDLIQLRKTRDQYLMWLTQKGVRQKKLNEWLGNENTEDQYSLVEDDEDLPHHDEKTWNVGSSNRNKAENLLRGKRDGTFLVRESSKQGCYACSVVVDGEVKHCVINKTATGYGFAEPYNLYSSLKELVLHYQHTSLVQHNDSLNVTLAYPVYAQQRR

[13] = system: AKT; test: In vitro AKT enzyme inhibitory assay; type: biochemical
[14] = molecular target: PI3Kβ (Homo sapiens, UniProt P42338); test: In vitro PI3K enzyme inhibitory assay (ADP-Glo), PI3Kβ; type: biochemical; settings: read-out: PI3Kβ % inhibition at 10 μM
PI3Kβ, sequence (P42338 whole entry): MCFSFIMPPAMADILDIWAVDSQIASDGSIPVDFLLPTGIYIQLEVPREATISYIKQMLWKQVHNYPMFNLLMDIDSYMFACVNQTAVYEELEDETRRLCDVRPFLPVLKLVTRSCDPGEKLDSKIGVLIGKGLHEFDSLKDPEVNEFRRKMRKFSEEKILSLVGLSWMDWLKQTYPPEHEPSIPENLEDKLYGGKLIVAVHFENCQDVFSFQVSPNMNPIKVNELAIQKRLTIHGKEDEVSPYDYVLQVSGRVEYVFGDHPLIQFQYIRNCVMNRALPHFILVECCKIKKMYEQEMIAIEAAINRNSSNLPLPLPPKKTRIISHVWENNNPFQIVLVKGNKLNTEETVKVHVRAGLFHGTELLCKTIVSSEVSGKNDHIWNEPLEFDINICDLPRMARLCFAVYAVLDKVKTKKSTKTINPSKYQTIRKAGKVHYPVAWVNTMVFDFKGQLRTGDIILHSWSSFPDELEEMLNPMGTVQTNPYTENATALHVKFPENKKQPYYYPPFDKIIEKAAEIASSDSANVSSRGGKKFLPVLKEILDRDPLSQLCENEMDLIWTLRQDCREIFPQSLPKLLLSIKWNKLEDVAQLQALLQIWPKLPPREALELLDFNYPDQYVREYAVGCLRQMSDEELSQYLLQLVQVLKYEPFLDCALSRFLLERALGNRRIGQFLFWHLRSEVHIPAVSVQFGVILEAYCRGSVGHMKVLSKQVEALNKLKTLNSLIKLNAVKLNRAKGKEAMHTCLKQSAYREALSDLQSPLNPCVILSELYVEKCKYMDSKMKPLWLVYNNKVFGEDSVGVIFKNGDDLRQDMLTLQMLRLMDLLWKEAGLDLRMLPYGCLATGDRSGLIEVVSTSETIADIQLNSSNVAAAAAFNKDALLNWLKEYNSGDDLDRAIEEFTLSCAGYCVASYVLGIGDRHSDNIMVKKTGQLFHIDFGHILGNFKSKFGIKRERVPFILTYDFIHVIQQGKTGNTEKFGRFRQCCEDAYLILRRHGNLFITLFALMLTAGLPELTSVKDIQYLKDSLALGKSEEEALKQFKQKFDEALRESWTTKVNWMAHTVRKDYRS
PI3Kβ, sequence (P27986 whole entry partner): as the sequence (P27986 whole entry partner) above

[15] = Homo sapiens, MCF7, read-out: IC50 against cell proliferation, MCF-7
[16] = Homo sapiens, A549, read-out: IC50 against cell proliferation, A549
[17] = read-out: IC50 against cell proliferation, MCF-7
[18] = read-out: IC50 against cell proliferation, A549

With `S=P1(c2ccccc2)Oc2ccc3cccc4c5cccc6ccc(c(c2c34)c65)O1` [Compound S15, 2-phenylperyleno [1,12-def][1,3,2] dioxaphosphepine 2-sulfide] the IC50 [1, 15] was 266 ± 3.5 µM, the IC50 ([2]; Homo sapiens, HeLa) was 733 ± 28.2 µM and the IC50 [3, 16] was 520 ± 22.7 µM. The IC50 [4] was > 400 µM, the IC50 [5] was > 200 µM and the IC50 [6] was > 200 µM.
For `S=P1(c2ccccc2)OCc2ccccc2CO1` [Compound S13, 3-phenyl-1,5-dihydrobenzo [e] [1,3,2] dioxaphosphepine 3-sulfide], the “Toxicity in words, LO2” value [7] was “low cytotoxicity”, the IC50 [1, 15] was 460 ± 3.5 µM and the IC50 ([2]; Homo sapiens, HeLa) was 633 ± 18.3 µM. The IC50 [3, 16] was 500 ± 18.2 µM, the “Toxicity in words, WI38” value [8] was “low cytotoxicity” and the IC50 [4] was > 400 µM. The “Toxicity in words, HepG2” value [9] was “low cytotoxicity”, the IC50 [5] was > 200 µM and the IC50 [6] was > 200 µM.
For `S=P1(c2ccccc2)NCCCO1` (stereo not drawn) [Compound S3, 2-phenyl-1,3,2-oxazaphosphinane 2-sulfide], the “Toxicity in words, LO2” value [7] was “low cytotoxicity”, the IC50 [1, 15] was 470 ± 4.1 µM and the IC50 ([2]; Homo sapiens, HeLa) was 826 ± 17.1 µM. The IC50 [3, 16] was 700 ± 32.3 µM, the “Toxicity in words, WI38” value [8] was “low cytotoxicity” and the IC50 [4] was > 400 µM. The “Toxicity in words, HepG2” value [9] was “low cytotoxicity”, the IC50 [5] was > 200 µM and the IC50 [6] was > 200 µM.
For `N#Cc1ccc2c(c1)NP(=S)(c1ccccc1)O2` (stereo not drawn) [Compound S16, 2-phenyl-3H-benzo [d][1,3,2] oxazaphosphole-5-carbonitrile 2-sulfide], the “H2S release amount (in words)” value [10] was “the highest amount of hydrogen sulfide was released”, the IC50 [7] was > 200 µM and the IC50 [1, 17] was 28 ± 2.7 µM. The IC50 [2] was 520 ± 20.3 µM, the IC50 [3, 18] was 280 ± 28.3 µM and the IC50 [8] was > 200 µM. For the same molecule, the IC50 [9] was > 400 µM.
With `S=P1(c2ccccc2)NCNCN1` [Compound S9, 2-phenyl-1,3,5,2-triazaphosphinane 2-sulfide] the “Toxicity in words, LO2” value [7] was “low cytotoxicity”, the IC50 [1, 15] was 459 ± 3.7 µM and the IC50 ([2]; Homo sapiens, HeLa) was 730 ± 20.7 µM. The IC50 [3, 16] was 590 ± 27.1 µM, the “Toxicity in words, WI38” value [8] was “low cytotoxicity” and the IC50 [4] was > 400 µM. For the same molecule, the “Toxicity in words, HepG2” value [9] was “low cytotoxicity”, the IC50 [5] was > 200 µM and the IC50 [6] was > 200 µM.
With `Cc1ccc2c(c1)NP(=S)(c1ccccc1)O2` (stereo not drawn) [Compound S14, 5-methyl-2-phenyl-3H benzo [d][1,3,2] oxazaphosphole 2-sulfide] the “H2S release amount (in words)” value [10] was “the highest amount of hydrogen sulfide was released”, the IC50 [7] was > 200 µM and the IC50 [1, 17] was 31 ± 2.5 µM. The IC50 [2] was 530 ± 11.3 µM, the IC50 [3, 18] was 220 ± 20.1 µM and the IC50 [8] was > 200 µM. The IC50 [9] was > 400 µM.
With `S=P1(c2ccccc2)OCCCCO1` [Compound S8, 2-phenyl-1,3,2-dioxaphosphepane 2-sulfide] the “Toxicity in words, LO2” value [7] was “low cytotoxicity”, the IC50 [7] was > 200 µM and the IC50 [1, 17] was 480 ± 3.8 µM. The IC50 [2] was 730 ± 20.5 µM, the IC50 [3, 18] was 803 ± 20.8 µM and the “Toxicity in words, WI38” value [8] was “low cytotoxicity”. For the same molecule, the IC50 [8] was > 200 µM, the “Toxicity in words, HepG2” value [9] was “low cytotoxicity” and the IC50 [9] was > 400 µM.
For `S=P1(c2ccccc2)SCCS1` [Compound S10, 2-phenyl-1,3,2-dithiaphospholane 2-sulfide], the “Toxicity in words, LO2” value [7] was “low cytotoxicity”, the IC50 [1, 15] was 455 ± 2.4 µM and the IC50 ([2]; Homo sapiens, HeLa) was 603 ± 20.8 µM. For the same molecule, the IC50 [3, 16] was 557 ± 18.5 µM, the “Toxicity in words, WI38” value [8] was “low cytotoxicity” and the IC50 [4] was > 400 µM. For the same molecule, the “Toxicity in words, HepG2” value [9] was “low cytotoxicity”, the IC50 [5] was > 200 µM and the IC50 [6] was > 200 µM.
For `S=P1(c2ccccc2)NCCO1` (stereo not drawn) [Compound S2, 2-phenyl-1,3,2-oxazaphospholidine 2-sulfide], the “Toxicity in words, LO2” value [7] was “low cytotoxicity”, the IC50 [1, 15] was 455 ± 3.2 µM and the IC50 ([2]; Homo sapiens, HeLa) was 736 ± 22.1 µM. For the same molecule, the IC50 [3, 16] was 650 ± 32.5 µM, the “Toxicity in words, WI38” value [8] was “low cytotoxicity” and the IC50 [4] was > 400 µM. For the same molecule, the “Toxicity in words, HepG2” value [9] was “low cytotoxicity”, the IC50 [5] was > 200 µM and the IC50 [6] was > 200 µM.
With `S=P1(c2ccccc2)Oc2ccccc2-c2ccccc2O1` [Compound S12, 6-phenyldibenzo [d, f][1,3,2] dioxaphosphepine 6-sulfide] the “Toxicity in words, LO2” value [7] was “low cytotoxicity”, the IC50 [1, 15] was 164 ± 4.1 µM and the IC50 ([2]; Homo sapiens, HeLa) was 703 ± 17.7 µM. For the same molecule, the IC50 [3, 16] was 640 ± 15.5 µM, the “Toxicity in words, WI38” value [8] was “low cytotoxicity” and the IC50 [4] was > 400 µM. For the same molecule, the “Toxicity in words, HepG2” value [9] was “low cytotoxicity”, the IC50 [5] was > 200 µM and the IC50 [6] was > 200 µM.
With `S=P1(c2ccccc2)NCCCCN1` [Compound S7, 2-phenyl-1,3,2-diazaphosphepane 2-sulfide] the “Toxicity in words, LO2” value [7] was “low cytotoxicity”, the IC50 [1, 15] was 473 ± 4.2 µM and the IC50 ([2]; Homo sapiens, HeLa) was 655 ± 15.3 µM. The IC50 [3, 16] was 730 ± 32.3 µM, the “Toxicity in words, WI38” value [8] was “low cytotoxicity” and the IC50 [4] was > 400 µM. For the same molecule, the “Toxicity in words, HepG2” value [9] was “low cytotoxicity”, the IC50 [5] was > 200 µM and the IC50 [6] was > 200 µM.
With `S=P1(c2ccccc2)NCCCCO1` (stereo not drawn) [Compound S4, 2-phenyl-1,3,2-oxazaphosphepane 2-sulfide] the “Toxicity in words, LO2” value [7] was “low cytotoxicity”, the IC50 [1, 15] was 472 ± 3.3 µM and the IC50 ([2]; Homo sapiens, HeLa) was 836 ± 19.7 µM. The IC50 [3, 16] was 720 ± 22.4 µM, the “Toxicity in words, WI38” value [8] was “low cytotoxicity” and the IC50 [4] was > 400 µM. For the same molecule, the “Toxicity in words, HepG2” value [9] was “low cytotoxicity”, the IC50 [5] was > 200 µM and the IC50 [6] was > 200 µM.
For `Oc1cccc(-c2nc(N3CCOCC3)c3oc4ncccc4c3n2)c1` [PI-103, reference compound], the inhibition at 10 µM [11] was 12%, the inhibition at 10 µM [12] was 100% and the “AKT % inhibition at 10 μM” value [13] was 100%. It also gave an inhibition at 10 µM [14] of 5%.
With `S=P1(c2ccccc2)NCCCCCCO1` (stereo not drawn) [Compound S6, 2-phenyl-1,3,2-oxazaphosphonane 2-sulfide] the “Toxicity in words, LO2” value [7] was “low cytotoxicity”, the IC50 [1, 15] was 471 ± 5.4 µM and the IC50 ([2]; Homo sapiens, HeLa) was 645 ± 15.5 µM. For the same molecule, the IC50 [3, 16] was 710 ± 22.6 µM, the “Toxicity in words, WI38” value [8] was “low cytotoxicity” and the IC50 [4] was > 400 µM. For the same molecule, the “Toxicity in words, HepG2” value [9] was “low cytotoxicity”, the IC50 [5] was > 200 µM and the IC50 [6] was > 200 µM.
In the case of `S=P1(c2ccccc2)NCCCCCO1` (stereo not drawn) [Compound S5, 2-phenyl-1,3,2-oxazaphosphocane 2-sulfide], the “Toxicity in words, LO2” value [7] is reported as “low cytotoxicity”, the IC50 [1, 15] is reported as 468 ± 3.4 µM and the IC50 ([2]; Homo sapiens, HeLa) is reported as 622 ± 20.6 µM. The IC50 [3, 16] was 680 ± 20.5 µM, the “Toxicity in words, WI38” value [8] was “low cytotoxicity” and the IC50 [4] was > 400 µM. The “Toxicity in words, HepG2” value [9] was “low cytotoxicity”, the IC50 [5] was > 200 µM and the IC50 [6] was > 200 µM.
